Experimental data as given in patent US4038317A, “O-aminoalkyl oximes” (Seperic, priority 1975, dated 1977).
Counter-ions that a name gives are not always drawn. Like-named read-outs stand apart in the source and are kept apart here.

How the values were obtained:
action of isoprenaline = experiment: inhibition of the action of isoprenaline on cardiac parameters in anesthetized dog; assay type: in vivo; details: Canis lupus familiaris, isoprenaline 0.02 micromole/kg
Source text: This beta-blocking activity is again apparent in vivo. […] The following Table sets forth the dosages which inhibit 50% of the effect of 0.02 micromole/kg of isoprenaline on blood pressure, on cardiac rhythm and on the contractile strength of the heart.

[1] = test system: isolated auricle of guinea-pig; experiment: isolated auricle of guinea-pig: antagonism of isoprenaline (PA2); assay type: cell-based; details: Cavia porcellus, agonist isoprenaline, PA2 = cologarithm of antagonist concentration requiring twice as much agonist
Source text: (§1) The following Table gives the PA2 determined with respect to this agonist (PA2 is the cologarithm of the antagonist concentration in the presence of which it is required to use twice as much agonist than in its absence to obtain the same effect; vide, on the subject; Calcul des PA2, Fiche Technique n° 16, J. Pharmacol. Paris, 1971, 2, 3, 373-380).

[2] = test system: isolated trachea of guinea-pig; experiment: isolated trachea of guinea-pig: antagonism of isoprenaline relaxation (PA2); assay type: cell-based; details: Cavia porcellus, agonist isoprenaline, PA2 = cologarithm of antagonist concentration requiring twice as much agonist
Source text: on the isolated trachea of guinea-pigs: they inhibit the relaxation due to the action of this same isoprenaline.
as §1

[3] = blood pressure, read-out: 50% inhibiting dosage of the action of isoprenaline: Blood pressure
[4] = cardiac rhythm, read-out: 50% inhibiting dosage of the action of isoprenaline: Rhythm
[5] = contractile strength of the heart, read-out: 50% inhibiting dosage of the action of isoprenaline: Contractile strength
[6] = read-out: PA2 Chronotropic effect (converted)
[7] = read-out: PA2 Inotropic effect (converted)

| SMILES | ED50 (action of isoprenaline; [3]) [µmol/kg] | ED50 (action of isoprenaline; [4]) [µmol/kg] | ED50 (action of isoprenaline; [5]) [µmol/kg] | Kb [1, 6] [µM] | Kb [1, 7] [µM] | Kb [2] [µM] |
| --- | --- | --- | --- | --- | --- | --- |
| CC(C)(C)NCC(O)CON=C1c2ccccc2-c2ccccc21 (centres unmarked) [Example 1, 9-(3-tert.butylamino-2-hydroxypropoxy)imino-fluorene hydrochloride] | 0.2 | 3 | 3 | – | – | – |
| CC(=NOCC(O)CNC(C)(C)C)c1ccc(Cl)cc1 (centres unmarked) [Example 2, 4-chloro-acetophenone-0-(3-tert.butylamino-2-hydroxy-propyl)oxime hydrochloride] | 1 | > 10 | 10 | 0.0263 | 0.0372 | 0.245 |
| CC(C)NCC(O)CON=Cc1ccc2ccccc2c1 (centres unmarked) [Example 3, 2-naphthalene carbaldehyde-0-(3-isopropylamino-2-hydroxy-propyl)-oxime hydrochloride] | – | – | – | 0.295 | 0.115 | 0.000427 |
| CC(C)(C)NCC(O)CON=C(c1ccccc1)c1ccccc1 (centres unmarked) [Example 4, benzophenone-0-(3-tert.butylamino-2-hydroxy-propyl)-oxime hydrochloride] | – | – | – | 0.162 | 0.427 | 0.011 |
| CC(C)NCC(O)CON=C1c2ccccc2-c2ccccc21 (centres unmarked) [Example 9] | 1.3 | > 17 | > 17 | 0.0407 | 0.0794 | 0.166 |
| CC(C)NCC(O)CON=c1c2ccccc2oc2ccccc12 (centres unmarked) [Example 10] | – | – | – | 0.0794 | 0.219 | 0.155 |
| CC(C)NCC(O)CON=C1CCc2ccccc21 (centres unmarked) [Example 12] | – | – | – | 0.363 | 0.513 | – |
| CC(=NOCC(O)CNC(C)C)c1ccccc1 (centres unmarked) [Example 13] | – | – | – | 0.229 | 0.186 | 0.0288 |
| CC(C)NCC(O)CON=C(c1ccccc1)c1ccccc1 (centres unmarked) [Example 14] | – | – | – | 0.162 | 0.191 | 0.0324 |
| CC(C)NCC(O)CON=C1CCCc2ccccc21 (centres unmarked) [Example 15] | – | – | – | 0.676 | 0.759 | 0.0126 |
| CC(C)NCC(O)CON=Cc1ccccc1 (centres unmarked) [Example 16] | – | – | – | 3.02 | 2.4 | 0.129 |
| CC(=NOCC(O)CNC(C)(C)C)c1ccc(C)cc1 (centres unmarked) [Example 17] | – | – | – | 0.0148 | 0.0138 | 0.0129 |
| CC(C)(C)NCC(O)CON=C1CCCc2ccccc21 (centres unmarked) [Example 18] | 0.05 | > 1 | > 1 | 0.0708 | 0.0288 | 0.000631 |
| CC(C)(C)NCC(O)CON=Cc1ccccc1 (centres unmarked) [Example 19] | – | – | – | 0.55 | 0.269 | 0.589 |
| CC(=NOCC(O)CNC(C)(C)C)c1ccccc1Cl (centres unmarked) [Example 20] | 0.07 | 1 | 0.7 | 0.00457 | 0.00427 | 0.0138 |
| CC(=NOCC(O)CNC(C)(C)C)c1ccccc1 (centres unmarked) [Example 21] | – | – | – | 0.2 | 0.117 | 0.024 |
| COc1ccc(C(C)=NOCC(O)CNC(C)(C)C)cc1 (centres unmarked) [Example 22] | – | – | – | 0.0141 | 0.0115 | 0.00182 |
| CC(=NOCC(O)CNC(C)(C)C)c1ccc([N+](=O)[O-])cc1 (centres unmarked) [Example 23] | 0.1 | 3 | 3 | 0.0347 | 0.0251 | 0.0288 |
| CC(=NOCC(O)CNC(C)(C)C)c1ccccc1C (centres unmarked) [Example 24] | – | – | – | 0.219 | 0.204 | 0.0126 |
| CC(=NOCC(O)CNC(C)(C)C)c1ccc(Br)cc1 (centres unmarked) [Example 25] | – | – | – | 0.0263 | 0.0126 | 0.00309 |
| CC(=NOCC(O)CNC(C)(C)C)c1cccc(C)c1 (centres unmarked) [Example 26] | – | – | – | 0.00776 | 0.00794 | 0.00501 |
| CC(=NOCC(O)CNC(C)(C)C)c1ccc(N)cc1 (centres unmarked) [Example 27] | – | – | – | 0.0229 | 0.0145 | 0.0794 |
| CC(C)(C)NCC(O)CON=Cc1ccc2ccccc2c1 (centres unmarked) [Example 28] | – | – | – | 0.0355 | 0.0324 | 0.0427 |
| CC(=NOCC(O)CNC(C)(C)C)c1ccc(C#N)cc1 (centres unmarked) [Example 31] | – | – | – | 0.12 | 0.123 | 0.102 |
